The text below walks through data of ChEMBL document CHEMBL4229383, “Antiproliferative efficacy of curcumin mimics through microtubule destabilization” (Eur J Med Chem, 2018).

The source made the active and inactive calls. The calls are words filed in the database; no cut-off is given here.

One data set has as its system DLD-1. Description: Cytotoxicity against human DLD1 cells preincubated for 4 hrs followed by incubation in compound free media for 24 hrs by MTT assay. In kind it is functional, cell-based. For orientation: Tetrazolium dyes change colour on reduction, which living cells bring about.
Another data set deals with MCF7. Description: Cytotoxicity against human MCF7 cells preincubated for 4 hrs followed by incubation in compound free media for 24 hrs by MTT assay. In kind it is functional, cell-based.
A further data set relates to WRL68. In words: Cytotoxicity against human WRL68 cells preincubated for 4 hrs followed by incubation in compound free media for 24 hrs by MTT assay. Type of data set: functional, cell-based.
The subject of another data set is A549. Description: Cytotoxicity against human A549 cells preincubated for 4 hrs followed by incubation in compound free media for 24 hrs by MTT assay. Type of data set: functional, cell-based.
The test system of the next data set is A-431. Description: Cytotoxicity against human A431 cells preincubated for 4 hrs followed by incubation in compound free media for 24 hrs by MTT assay. Type of data set: functional, cell-based.
Data set [1] is described as follows: Inhibition of porcine brain tubulin polymerization measured every min for 1 hr. Details: species or system Sus scrofa.
The species named for a further data set is Sus scrofa. Description: Inhibition of porcine brain tubulin polymerization at 20 uM measured every min for 1 hr.
For data set [2], the system named is Mus musculus. In words: Toxicity in Swiss mouse implanted with mouse EAC cells assessed as body weight at 20 mg/kg, ip measured on day 12 post dose (reference value: 35.5g). In kind it is organism-based. Conditions: in vivo.
In data set [3] the test system is Mus musculus. Description: Toxicity in Swiss mouse implanted with mouse EAC cells assessed as body weight at 20 mg/kg, ip measured on day 1 post dose (reference value: 24.77g). Conditions: in vivo. In kind it is organism-based.
Data set [4] has as its system Mus musculus. Description: Toxicity in Swiss mouse implanted with mouse EAC cells assessed as body weight at 20 mg/kg, ip measured on day 12 post dose (reference value: 32.5g). Type of data set: organism-based. Conditions: in vivo.
The subject of data set [5] is Mus musculus. Description: Toxicity in Swiss mouse implanted with mouse EAC solid tumor cells assessed as body weight at 22 mg/kg, ip measured on day 1 post dose (reference value: 25 g). Conditions: in vivo. In kind it is organism-based.
The subject of data set [6] is Mus musculus. In words: Toxicity in Swiss mouse implanted with mouse EAC solid tumor cells assessed as body weight at 22 mg/kg, ip measured on day 5 post dose (reference value: 26.7 g). Type of data set: organism-based. Conditions: in vivo.
Data set [7] has as its system Ehrlich. Description: Antitumor activity against mouse EAC cells implanted in Swiss mouse assessed as tumor growth inhibition at 20 mg/kg, ip from day 1 to 9 and measured on day 12 post dose relative to control. Type of data set: functional. Conditions: read-out: TGI.
In data set [8] the test system is Mus musculus. Description: Toxicity in Swiss mouse implanted with mouse EAC cells assessed as body weight at 20 mg/kg, ip measured on day 5 post dose (reference value: 23.7g). Type of data set: organism-based. Conditions: in vivo.
In data set [9] the test system is Mus musculus. Description: Toxicity in Swiss mouse implanted with mouse EAC cells assessed as body weight at 20 mg/kg, ip measured on day 1 post dose (reference value: 22g). In kind it is organism-based. Conditions: in vivo.
Data set [10] relates to Mus musculus. Description: Toxicity in Swiss mouse implanted with mouse EAC solid tumor cells assessed as body weight at 22 mg/kg, ip measured on day 9 post dose (reference value: 26.7 g). In kind it is organism-based. Conditions: in vivo.
The subject of data set [11] is Ehrlich. Description: Antitumor activity against mouse EAC cells implanted in Swiss mouse assessed as solid tumor growth inhibition at 22 mg/kg, ip from day 1 to 9 and measured on day 13 post dose relative to control. Type of data set: functional. Conditions: read-out: TGI.
Data set [12] has as its system Mus musculus. Description: Toxicity in Swiss mouse implanted with mouse EAC solid tumor cells assessed as body weight at 22 mg/kg, ip from day 1 to 9 and measured on day 13 post dose (reference value: 26.9g). Type of data set: organism-based. Conditions: in vivo.
The subject of data set [13] is Mus musculus. In words: Toxicity in Swiss mouse implanted with mouse EAC cells assessed as body weight at 20 mg/kg, ip measured on day 9 post dose (reference value: 30.55g). Conditions: in vivo. In kind it is organism-based.
Data set [14] has as its system Mus musculus. Description: Toxicity in Swiss mouse implanted with mouse EAC cells assessed as body weight at 20 mg/kg, ip measured on day 5 post dose (reference value: 26.33g). In kind it is organism-based. Conditions: in vivo.
Data set [15] deals with Mus musculus. Description: Toxicity in Swiss mouse implanted with mouse EAC cells assessed as body weight at 20 mg/kg, ip measured on day 9 post dose (reference value: 28.66g). In kind it is organism-based. Conditions: in vivo.
For data set [16], the system named is Mus musculus. In words: Toxicity in Swiss mouse implanted with mouse EAC cells assessed as mortality at 20 mg/kg, ip from day 1 to 9 and measured on day 12 post dose. Conditions: in vivo. Type of data set: organism-based.

The IC50 is the midpoint of a concentration-inhibition curve. A lower IC50 goes with greater potency in that assay. Consider `COc1cc(/C=C/C(=O)CC(=O)/C=C/c2ccc(O)cc2)ccc1O`, for which the IC50 in the data set on DLD-1 was more than 40 µM; in the data set with MCF7, 92.1 µM; in the data set with WRL68, 26.3 µM; with A549 it was 28.2 µM; in the data set on A-431, more than 100 µM.

`O=C(/C=C/c1ccc(/C=C/C(=O)c2ccc3c(c2)OCO3)cc1)c1ccc2c(c1)OCO2`: the IC50 in the data set with DLD-1 is more than 40 µM; in the data set with MCF7, 30.6 µM; with WRL68, 80.1 µM; in the data set with A549, more than 100 µM; with A-431 it was more than 100 µM.

With `O=C(/C=C/c1ccc2c(c1)OCO2)c1cccc(C(=O)/C=C/c2ccc3c(c2)OCO3)c1`, the IC50 is 16.5 µM in the data set on DLD-1; more than 100 µM in the data set with MCF7; more than 100 µM in the data set on WRL68; 18.7 µM with A549; 10 µM in the data set with A-431.

Turning to `O=C(/C=C/c1ccc(O)cc1)CC(=O)/C=C/c1ccc(O)cc1` [BISDEMETHOXYCURCUMIN], the IC50 was more than 40 µM in the data set with DLD-1, 48.9 µM in the data set with MCF7, 45.4 µM with WRL68 and more than 100 µM in the data set on A-431.

With `COc1cc(/C=C/C(=O)CC(=O)/C=C/c2ccc(O)c(OC)c2)ccc1O` [CURCUMIN], the IC50 in data set [1] is 5.12 µM; in the data set with DLD-1, more than 40 µM; in the data set on MCF7, 22.1 µM; in the data set on WRL68, 27.8 µM; in the data set with A549, 43.9 µM; in the data set on A-431, more than 100 µM. In addition, in the data set listed under Sus scrofa, the inhibition result was “Active”.

`O=c1[nH]cc(F)c(=O)[nH]1` [FLUOROURACIL]: the Activity with Mus musculus [2] is 24.14 g; in the data set on Mus musculus [3], 25.85 g; with Mus musculus [4], 21.42 g; with Mus musculus [5], 26.42 g; in the data set with Mus musculus [6], 25.14 g; in the data set with Mus musculus [8], 22.57 g. Besides, the Activity in the data set on Mus musculus [9] is on record as 22.85 g; in the data set on Mus musculus [10], 24.71 g; in the data set on Mus musculus [12] it was 24.85 g; with Mus musculus [13] it was 24.57 g; in the data set with Mus musculus [14] it was 25.85 g; with Mus musculus [15], 21.71 g. In addition, the Activity entry in the data set with Mus musculus [16] was “Non-Toxic”. For the same compound, the inhibition in vivo at 20 mg/kg in the data set on Ehrlich [7] fell in the range of 96.4 to 96.8%. In the data set on Ehrlich [11], the inhibition in vivo at 22 mg/kg is 51%.

As for `COc1cc([C@@H]2c3cc4c(cc3[C@H](O)[C@H]3COC(=O)[C@H]23)OCO4)cc(OC)c1OC` [PODOFILOX], the IC50 in data set [1] was 0.78 µM; with DLD-1 it was 0.11 µM; with MCF7, 4.16 µM; with WRL68, 3.02 µM; in the data set with A549 it was 5.61 µM; with A-431, more than 100 µM.

As for `CC/C(=C(\c1ccccc1)c1ccc(OCCN(C)C)cc1)c1ccccc1` [TAMOXIFEN], the IC50 in the data set on DLD-1 was 16.3 µM; in the data set with MCF7, 8.61 µM; in the data set on A-431 it was more than 100 µM.
